Reference: PMC12415777, “Dose-dependent modulation of hepatic cytochrome P450 enzymes by tenvermectin: implications for medication safety and combination therapy” (Frontiers in Veterinary Science, 2025)

What was measured:
Format in all cases: biochemical
CYP1A1/2 = system: T1, CYP1A1/2; experiment: probe substrate conversion in rat liver microsomes, HPLC-fluorescence; conditions: ethoxyresorufin at about Km, NADPH regeneration system, 0.05 M Tris-HCl pH 7.4, 15 min; read-out: IC 50 / Positive control
T1 construct: native enzymes in rat liver microsomes; ethoxyresorufin O-deethylation (EROD) read-out
Excerpt: probe substrate conversion in rat liver microsomes, HPLC-fluorescence on CYP1A1/2

CYP2B1 [1] = target: T2, CYP2B1 (Rattus norvegicus, UniProt P00176); experiment: Michaelis-Menten fit in rat liver microsomes, HPLC-fluorescence of resorufin; conditions: NADPH regeneration system, 0.05 M Tris-HCl pH 7.4, 15 min, 5 μM α-BNF added to block CYP1A1/2
T2 construct: native enzyme in rat liver microsomes; benzyloxyresorufin O-dealkylation (BROD) read-out
T2 sequence (P00176 1-491): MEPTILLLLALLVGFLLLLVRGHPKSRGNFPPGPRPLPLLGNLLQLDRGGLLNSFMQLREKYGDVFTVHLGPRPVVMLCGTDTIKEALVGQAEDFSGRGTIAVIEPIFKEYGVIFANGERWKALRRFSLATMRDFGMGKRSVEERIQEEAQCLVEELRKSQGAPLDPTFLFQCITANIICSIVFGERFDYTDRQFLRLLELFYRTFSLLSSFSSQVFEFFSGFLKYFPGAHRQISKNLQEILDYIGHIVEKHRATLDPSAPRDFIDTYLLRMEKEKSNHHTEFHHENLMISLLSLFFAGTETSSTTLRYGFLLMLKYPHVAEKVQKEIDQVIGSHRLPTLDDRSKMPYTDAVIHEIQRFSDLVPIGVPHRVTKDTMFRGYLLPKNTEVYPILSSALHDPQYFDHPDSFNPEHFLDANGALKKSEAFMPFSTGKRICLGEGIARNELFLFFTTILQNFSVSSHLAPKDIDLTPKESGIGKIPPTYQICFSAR

CYP2D2 = target: T3, CYP2D2 (Rattus norvegicus, UniProt P10634); experiment: Michaelis-Menten fit in rat liver microsomes, HPLC-fluorescence of dextrorphan; conditions: NADPH regeneration system, 0.05 M Tris-HCl pH 7.4, 30 min
T3 construct: gene Cyp2d26; native enzyme in rat liver microsomes; dextromethorphan to dextrorphan read-out
T3 sequence (P10634 1-500): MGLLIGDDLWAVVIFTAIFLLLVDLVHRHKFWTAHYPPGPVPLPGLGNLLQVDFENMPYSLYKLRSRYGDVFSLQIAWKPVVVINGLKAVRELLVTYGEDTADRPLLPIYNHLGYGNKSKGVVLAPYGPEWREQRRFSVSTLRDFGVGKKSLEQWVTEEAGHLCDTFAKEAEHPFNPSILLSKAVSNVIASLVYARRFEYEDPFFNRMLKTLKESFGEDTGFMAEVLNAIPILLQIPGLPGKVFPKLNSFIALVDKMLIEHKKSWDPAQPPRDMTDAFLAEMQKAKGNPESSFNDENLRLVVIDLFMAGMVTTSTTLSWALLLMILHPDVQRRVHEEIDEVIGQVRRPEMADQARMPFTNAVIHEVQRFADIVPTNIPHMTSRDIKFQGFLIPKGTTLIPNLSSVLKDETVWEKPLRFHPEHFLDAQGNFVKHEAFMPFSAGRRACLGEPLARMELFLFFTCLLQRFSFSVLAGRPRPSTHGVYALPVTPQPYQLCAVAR

CYP3A1/2 = system: T4, CYP3A1/2; experiment: probe substrate conversion in rat liver microsomes, HPLC-MS/MS; conditions: testosterone at about Km, NADPH regeneration system, 0.05 M Tris-HCl pH 7.4, 30 min; read-out: IC 50 / Positive control
T4 construct: native enzymes in rat liver microsomes; testosterone 6beta-hydroxylation read-out
Excerpt: probe substrate conversion in rat liver microsomes, HPLC-MS/MS on CYP3A1/2

CYP2B1 [2] = target: T2, CYP2B1; experiment: probe substrate conversion in rat liver microsomes, HPLC-fluorescence; conditions: benzyloxyresorufin at about Km, 5 μM α-BNF added to block CYP1A1/2, NADPH regeneration system, 0.05 M Tris-HCl pH 7.4, 15 min; read-out: IC 50 / Positive control
Excerpt: probe substrate conversion in rat liver microsomes, HPLC-fluorescence on CYP2B1

SMILES: O=c1cc(-c2ccccc2)oc2c1ccc1ccccc12 [α-BNF]
- IC50 (CYP1A1/2): 1820 nM

SMILES: O=c1ccc2nc3ccc(OCc4ccccc4)cc3oc-2c1 [BR]
- Km (CYP2B1 [1]): (B) benzyloxyresorufin (BR) (CYP2B1)

SMILES: COc1ccc2c(c1)[C@]13CCCC[C@@H]1[C@H](C2)N(C)CC3 [DOM]
- Km (CYP2D2): (D) dextromethorphan (DOM) (CYP2D2)

SMILES: CC(=O)N1CCN(c2ccc(OCC3COC(Cn4ccnc4)(c4ccc(Cl)cc4Cl)O3)cc2)CC1 (centres unmarked) [KCZ]
- IC50 (CYP3A1/2): 470 nM

SMILES: CC(C)(C(=O)c1cccnc1)c1cccnc1 [MTY]
- IC50 (CYP2B1 [2]): 4310 nM
